From patent publication US8163736B2, “Cytotoxic agents comprising new tomaymycin derivatives” (sanofi-aventis, priority 2006, dated 2012)

Key:
Type in all cases: cell-based
A549 = experiment: In vitro potency of tomaymycin derivatives, WST-8 surviving fraction, A549; details: Homo sapiens, 96 h; A549 cells, incubated 4 days at 37° C., WST-8 read at 450 nm
Experimental: (§1) Samples of free tomaymycin derivative or tomaymycin derivative conjugate are added to a 96-well flat bottomed tissue culture plate and titrated using serial dilutions ranging from 1×10^−12 M to 3×10^−7 M. Antigen positive tumor cells or antigen negative tumor cells are added to the wells in such a way that there are triplicate samples for each drug concentration for each cell line. The plates are incubated at 37° C. in an atmosphere of 5% CO2 for 4 days.
(§2) At the end of the incubation period, 20 μl of the tetrazolium reagent WST-8 (2-(2-methoxy-nitrophenyl)-3-(4-nitrophenyl)-5-(2,4-disulfophenyl)-2-tetrazolium, monosodium salt) is added to each well, and the plates are returned to the incubator for 2 hours. The absorbance in each well of the plates is then measured using the Molecular Devices plate reader at 450 nm. Surviving fraction of cells at each concentration of tomaymycin derivative or conjugate are plotted.

KB = experiment: In vitro potency of tomaymycin derivatives, WST-8 surviving fraction, KB; details: Homo sapiens, 96 h; KB cells, incubated 4 days at 37° C., WST-8 read at 450 nm
Experimental: as §1, §2

MCF7 = experiment: In vitro potency of tomaymycin derivatives, WST-8 surviving fraction, MCF7; details: Homo sapiens, 96 h; MCF7 cells, incubated 4 days at 37° C., WST-8 read at 450 nm
Experimental: as §1, §2

C/C=C1\C[C@H]2C=Nc3cc(OCc4cccc(COc5cc6c(cc5OC)C(=O)N5C/C(=C/C)C[C@H]5C=N6)c4)c(OC)cc3C(=O)N2C1 [Example 1, 8,8′-[1,3-benzenediylbis(methylenoxy)]-bis[(S)-2-eth-(E)-ylidene-7-methoxy-1,2,3,11a-tetrahydro-5H-pyrrolo[2,1-c][1,4]benzodiazepin-5-one]]
IC50 (A549): < 0.001 nM | IC50 (KB): < 0.001 nM | IC50 (MCF7): < 0.001 nM

C/C=C1\C[C@H]2C=Nc3cc(OCc4cc(COc5cc6c(cc5OC)C(=O)N5C/C(=C/C)C[C@H]5C=N6)cc(OC)c4)c(OC)cc3C(=O)N2C1 [Example 2, 8,8′-[5-methoxy-1,3-benzenediylbis(methylenoxy)]-bis[(S)-2-eth-(E)-ylidene-7-methoxy-1,2,3,11a-tetrahydro-5H-pyrrolo[2,1-c][1,4]benzodiazepin-5-one]]
IC50 (A549): < 0.001 nM | IC50 (KB): < 0.001 nM | IC50 (MCF7): < 0.001 nM

C/C=C1\C[C@H]2C=Nc3cc(OCCC(C)CCOc4cc5c(cc4OC)C(=O)N4C/C(=C/C)C[C@H]4C=N5)c(OC)cc3C(=O)N2C1 [Example 5, 8,8′-[3-methyl-1,5-pentanediylbis(oxy)]-bis[(S)-2-eth-(E)-ylidene-7-methoxy-1,2,3,11a-tetrahydro-5H-pyrrolo[2,1-c][1,4]benzodiazepin-5-one]]
IC50 (A549): 0.07 nM | IC50 (KB): 0.1 nM | IC50 (MCF7): 0.1 nM
